From patent US8912221B2, “Biaryl amide derivatives” (Hoffmann-La Roche Inc., priority 2010, dated 2014)

Key:
Bradykinin-1 receptor [1] = molecular target: T1, Bradykinin-1 receptor (Homo sapiens (Human), UniProt P46663); assay: Receptor Binding Assay; details: membranes from CHO-K1 cells overexpressing Bradykinin-1 receptor; 6 nM [3H]Kallidin (Des Arg10, Leu9); read-out: B1R Binding Ki
Experimental: Binding assays were done with membranes from CHO-K1 cells overexpressing Bradykinin-1 receptor.
For binding, Bradykinin-1 receptor antagonist compounds were added in various concentrations in 50 mM Tris pH 7.4, 5 mM MgCl2 together with 6 nM Kallidin (Des Arg^10, Leu^9), [3,4-Prolyl-3,4-^3H(N)] (PerkinElmer, 1.85-4.44 TBq/mmol) to 40 μg membrane protein containing approximately 1 fmol Bradykinin-1 receptor and incubated for 15 min at 27° C. To determine non-specific binding 10 μM Lys-(Des-Arg^9)-Bradykinin (Bachem) was added. Membranes were harvested through GF/B (glass fiber filter; PerkinElmer) plates, equilibrated with 0.5% polyethylenimine, air dried at 50° C. for 2 hr. Radioactivity was determined by counting in a topcounter (NXT Packard). Specific binding was defined as total binding minus nonspecific binding and typically represents about 90-95% of the total binding. Antagonist activity is expressed as Ki: inhibitor concentration required for 50% inhibition of specific binding corrected for the concentration of the radioligand.

Bradykinin-1 receptor [2] = molecular target: T1, Bradykinin-1 receptor; assay: Calcium Mobilization Assay; type: cell-based; details: GeneBLAzer Bradykinin (B1)-NFAT-bla CHO-K1 cells; antagonist activity, FLIPR; read-out: Ca mobilization IC50
Experimental: Calcium Mobilization Assay
GeneBLAzer® Bradykinin (B1)-NFAT-bla CHO-K1 cells (from Invitrogen) stably overexpressing the human bradykinin 1 receptor were cultured in DMEM (high glucose) supplemented with 10% dialysed FBS, 1% NEAA (non essential amino acids) 1% penicillin/streptomycin, 1% G418 and 0.1 mg/ml zeocin.
For the assay cells were grown overnight in 384-well black clear flat bottom polystyrene plates (Costar) at 37° C. at 5% CO2. After washing with DMEM, 20 mM Hepes, 2.5 mM probenecid, 0.1% BSA (DMEM assay buffer) cells were loaded with 4 μM Fluo-4 in the same DMEM assay buffer for 2 hours at 30° C. Excess dye was removed and cells were washed with DMEM assay buffer. 384-well compound plates were prepared with DMEM assay buffer/0.5% DMSO with or without various concentrations of test compounds. Usually compounds were tested for agonist and antagonist activity.
Test compounds were added to the assay plate and agonist activity was monitored as fluorescence for 80 seconds with a FLIPR (488 nm excitation; 510-570 nm emission; Molecular Devices). […] Increases in intracellular calcium are reported as maximum fluorescence after agonist exposure minus basal fluorescence before exposure. Antagonist activity is indicated as inhibitor concentration required for 50% inhibition of specific calcium increases.

T1 sequence (P46663 whole entry): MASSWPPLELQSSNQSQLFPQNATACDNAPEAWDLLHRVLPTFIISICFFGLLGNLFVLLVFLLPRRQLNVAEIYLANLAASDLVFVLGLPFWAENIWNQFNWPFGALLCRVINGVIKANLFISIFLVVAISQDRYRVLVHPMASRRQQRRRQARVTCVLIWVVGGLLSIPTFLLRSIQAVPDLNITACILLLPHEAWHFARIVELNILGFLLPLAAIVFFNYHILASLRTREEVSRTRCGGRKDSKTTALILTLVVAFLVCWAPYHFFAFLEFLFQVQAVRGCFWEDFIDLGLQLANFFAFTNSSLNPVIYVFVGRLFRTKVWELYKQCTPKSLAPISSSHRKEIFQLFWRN

Structure (SMILES)	Ki (Bradykinin-1 receptor [1]) [nM]	IC50 (Bradykinin-1 receptor [2]) [nM]
Cc1nc(-c2c(F)cc(Cl)cc2-c2cnc([C@@H](C)NC(=O)C3(NC(=O)c4cc(F)cc(C(F)(F)F)c4)COC3)c(F)c2)no1 [Example 1, 3-(3-Fluoro-5-trifluoromethyl-benzoylamino)-oxetane-3-carboxylic acid ((R)-1-{5-[5-chloro-3-fluoro-2-(5-methyl-[1,2,4]oxadiazol-3-yl)-phenyl]-3-fluoro-pyridin-2-yl}-ethyl)-amide]	2.6	0.3
Cc1nc(-c2c(F)cc(Cl)cc2-c2cnc([C@@H](C)NC(=O)C3(NC(=O)C(F)(F)F)COC3)c(F)c2)no1 [Example 2, 3-(2,2,2-Trifluoro-acetylamino)-oxetane-3-carboxylic acid ((R)-1-{5-[5-chloro-3-fluoro-2-(5-methyl-[1,2,4]oxadiazol-3-yl)-phenyl]-3-fluoro-pyridin-2-yl}-ethyl)-amide]	11.9	1.2
Cc1nc(-c2c(F)cc(Cl)cc2-c2cnc([C@@H](C)NC(=O)C3(NC(=O)c4ccno4)COC3)c(F)c2)no1 [Example 3, Isoxazole-5-carboxylic acid [3-((R)-1-{5-[5-chloro-3-fluoro-2-(5-methyl-[1,2,4]oxadiazol-3-yl)-phenyl]-3-fluoro-pyridin-2-yl}-ethylcarbamoyl)-oxetan-3-yl]-amide]	2.4	0.4
Cc1cc(C(=O)NC2(C(=O)N[C@H](C)c3ncc(-c4cc(Cl)cc(F)c4-c4noc(C)n4)cc3F)COC2)on1 [Example 4, 3-Methyl-isoxazole-5-carboxylic acid [3-((R)-1-{5-[5-chloro-3-fluoro-2-(5-methyl-[1,2,4]oxadiazol-3-yl)-phenyl]-3-fluoro-pyridin-2-yl}-ethylcarbamoyl)-oxetan-3-yl]-amide]	2.5	0.2
Cc1nc(-c2c(F)cc(Cl)cc2-c2cnc([C@@H](C)NC(=O)C3(NC(=O)c4cncnc4)COC3)c(F)c2)no1 [Example 5, Pyrimidine-5-carboxylic acid [3-((R)-1-{5-[5-chloro-3-fluoro-2-(5-methyl-[1,2,4]oxadiazol-3-yl)-phenyl]-3-fluoro-pyridin-2-yl}-ethylcarbamoyl)-oxetan-3-yl]-amide]	1.1	0.1
COC(=O)c1c(Cl)cccc1-c1ccc([C@@H](C)NC(=O)C2(NC(=O)C(F)(F)F)COC2)c(F)c1 [Example 6, 3-Chloro-3′-fluoro-4′-((R)-1-{[3-(2,2,2-trifluoro-acetylamino)-oxetane-3-carbonyl]-amino}-ethyl)-biphenyl-2-carboxylic acid methyl ester]	6.5	2.2
COC(=O)c1c(Cl)cccc1-c1ccc([C@@H](C)NC(=O)C2(NC(=O)c3cncnc3)COC2)c(F)c1 [Example 7, 3-Chloro-3′-fluoro-4′-[(R)-1-({3-[(pyrimidine-5-carbonyl)-amino]-oxetane-3-carbonyl}-amino)-ethyl]-biphenyl-2-carboxylic acid methyl ester]	1.6	0.1

The next lines start with the values.

Ki (Bradykinin-1 receptor [1]) [nM]	IC50 (Bradykinin-1 receptor [2]) [nM]	Structure (SMILES)
5.3	0.4	COC(=O)c1c(Cl)cccc1-c1ccc([C@@H](C)NC(=O)C2(NC(=O)CC(F)(F)F)COC2)c(F)c1 [Example 8, 3-Chloro-3′-fluoro-4′-((R)-1-{[3-(3,3,3-trifluoro-propionylamino)-oxetane-3-carbonyl]-amino}-ethyl)-biphenyl-2-carboxylic acid methyl ester]
5.1	1.1	Cc1cc(C(=O)NC2(C(=O)N[C@H](C)c3ncc(-c4cc(Cl)cc(Cl)c4OCC(F)F)cc3F)COC2)on1 [Example 9, 3-Methyl-isoxazole-5-carboxylic acid [3-((R)-1-{5-[3,5-dichloro-2-(2,2-difluoro-ethoxy)-phenyl]-3-fluoro-pyridin-2-yl}-ethylcarbamoyl)-oxetan-3-yl]-amide]
4.7	3.3	C[C@@H](NC(=O)C1(NC(=O)c2ccno2)COC1)c1ncc(-c2cc(Cl)cc(Cl)c2OCC(F)F)cc1F [Example 10, Isoxazole-5-carboxylic acid [3-((R)-1-{5-[3,5-dichloro-2-(2,2-difluoro-ethoxy)-phenyl]-3-fluoro-pyridin-2-yl}-ethylcarbamoyl)-oxetan-3-yl]-amide]
2.6	0.8	C[C@@H](NC(=O)C1(NC(=O)c2cncnc2)COC1)c1ncc(-c2cc(Cl)cc(Cl)c2OCC(F)F)cc1F [Example 11, Pyrimidine-5-carboxylic acid [3-((R)-1-{5-[3,5-dichloro-2-(2,2-difluoro-ethoxy)-phenyl]-3-fluoro-pyridin-2-yl}-ethylcarbamoyl)-oxetan-3-yl]-amide]
0.8	0.1	COC(=O)c1c(Cl)cccc1-c1ccc([C@@H](C)NC(=O)C2(NC(=O)c3ccno3)COC2)c(F)c1 [Example 12, 3-Chloro-3′-fluoro-4′-[(R)-1-({3-[(isoxazole-5-carbonyl)-amino]-oxetane-3-carbonyl}-amino)-ethyl]-biphenyl-2-carboxylic acid methyl ester]
1	0.04	COC(=O)c1c(Cl)cccc1-c1ccc([C@@H](C)NC(=O)C2(NC(=O)c3cc(C)no3)COC2)c(F)c1 [Example 13, 3-Chloro-3′-fluoro-4′-[(R)-1-({3-[(3-methyl-isoxazole-5-carbonyl)-amino]-oxetane-3-carbonyl}-amino)-ethyl]-biphenyl-2-carboxylic acid methyl ester]
1.4	0.2	COc1cc(C(=O)NC2(C(=O)N[C@H](C)c3ncc(-c4cc(Cl)cc(F)c4-c4noc(C)n4)cc3F)COC2)on1 [Example 14, 3-Methoxy-isoxazole-5-carboxylic acid [3-((R)-1-{5-[5-chloro-3-fluoro-2-(5-methyl-[1,2,4]oxadiazol-3-yl)-phenyl]-3-fluoro-pyridin-2-yl}-ethylcarbamoyl)-oxetan-3-yl]-amide]
1.1	0.1	COc1ncc(C(=O)NC2(C(=O)N[C@H](C)c3ncc(-c4cc(Cl)cc(F)c4-c4noc(C)n4)cc3F)COC2)cn1 [Example 15, 2-Methoxy-pyrimidine-5-carboxylic acid [3-((R)-1-{5-[5-chloro-3-fluoro-2-(5-methyl-[1,2,4]oxadiazol-3-yl)-phenyl]-3-fluoro-pyridin-2-yl}-ethylcarbamoyl)-oxetan-3-yl]-amide]
1.6	0.4	Cc1nc(-c2c(F)cc(Cl)cc2-c2cnc([C@@H](C)NC(=O)C3(NC(=O)c4snnc4C)COC3)c(F)c2)no1 [Example 16, 4-Methyl-[1,2,3]thiadiazole-5-carboxylic acid [3-((R)-1-{5-[5-chloro-3-fluoro-2-(5-methyl-[1,2,4]oxadiazol-3-yl)-phenyl]-3-fluoro-pyridin-2-yl}-ethylcarbamoyl)-oxetan-3-yl]-amide]
25	26.6	COCC(=O)NC1(C(=O)N[C@H](C)c2ncc(-c3cc(Cl)cc(F)c3-c3noc(C)n3)cc2F)COC1 [Example 17, 3-(2-Methoxy-acetylamino)-oxetane-3-carboxylic acid ((R)-1-{5-[5-chloro-3-fluoro-2-(5-methyl-[1,2,4]oxadiazol-3-yl)-phenyl]-3-fluoro-pyridin-2-yl}-ethyl)-amide]
